Laboratory results published in US20060069132A1, “Azolecarboxamide herbicides” (priority 2004, published 2006).
Read-outs that look alike come from different tables or passages of the source.

Key:
blackgrass = test: Test B postemergence herbicide test; format: in vivo, Alopecurus myosuroides; conditions: Alopecurus myosuroides, post-emergence, 336 h, postemergence, visual rating, scale 0 (no effect) to 100 (complete control), read-out: Blackgrass plant response rating
Outline: (§1)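 Formulated test chemicals went onto postemergence plants measuring 2 to 18 cm, at one to four leaves. For the paddy assay, species had reached two leaves. Scoring took place 13–15 days later by eye, relative to untreated plants, using 0 for no effect up to 100 for full control.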

ducksalad = test: Test B flooded paddy test; format: in vivo, Heteranthera limosa; conditions: Heteranthera limosa, 336 h, 1000 g ai/ha, scale 0 to 100 (0 no effect, 100 complete control), read-out: Ducksalad plant response rating
Outline: as §1

velvetleaf = test: Test B pre-/postemergence herbicide test; format: in vivo, Abutilon theophrasti; conditions: Abutilon theophrasti, 336 h; for pest or weed control at 125 g/ha: 125 g ai/ha; for pest or weed control at 500 g/ha: 500 g ai/ha
Outline: (§2)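 Pre: seeds sown, then sprayed. Post: 1–4-leaf plants (2–18 cm) sprayed at the same time. Paddy: flooded, treated at 2-leaf stage. Formulation: non-phytotoxic solvent with surfactant. Greenhouse 13–15 days; visual 0–100 score relative to controls.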

Surinam grass = test: Test B pre-/postemergence herbicide test; format: in vivo, Urochloa decumbens; conditions: Urochloa decumbens; for pest or weed control at 125 g/ha: 125 g ai/ha; for pest or weed control at 500 g/ha: 500 g ai/ha
Outline: as §2

pigweed = test: Test B pre-/postemergence herbicide test; format: in vivo, Amaranthus retroflexus; conditions: Amaranthus retroflexus, 336 h; for pest or weed control at 125 g/ha: 125 g ai/ha; for pest or weed control at 500 g/ha: 500 g ai/ha
Outline: as §2

barnyardgrass [1] = test: Test B pre-/postemergence herbicide test; format: in vivo, Echinochloa crus-galli; conditions: Echinochloa crus-galli; for pest or weed control at 125 g/ha: 125 g ai/ha; for pest or weed control at 500 g/ha: 500 g ai/ha
Outline: (§3)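 Plants compared with untreated controls 13–15 days post-treatment and given a visual 0–100 injury score. Applications: preemergence to seeds; postemergence at 1- to 4-leaf (2–18 cm); paddy species flooded, 2-leaf stage. Vehicle non-phytotoxic, surfactant included.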

rice = test: Test B flooded paddy test; format: in vivo, Oryza sativa; conditions: Oryza sativa, 336 h, 1000 g ai/ha, scale 0 to 100 (0 no effect, 100 complete control), read-out: Rice plant response rating
Outline: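 Plants grow to 1- to 4-leaf stage (2–18 cm) for postemergence spraying, or to 2-leaf stage for the paddy test. Formulated compound is applied. Greenhouse holding lasts 13–15 days. Response is scored visually relative to controls, 0 no effect to 100 complete control; a dash means no result.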

giant foxtail = test: Test B pre-/postemergence herbicide test; format: in vivo, Setaria faberi; conditions: Setaria faberi, 336 h; for pest or weed control at 125 g/ha: 125 g ai/ha; for pest or weed control at 500 g/ha: 500 g ai/ha
Outline: as §2

cocklebur = test: Test B pre-/postemergence herbicide test; format: in vivo, Xanthium strumarium; conditions: Xanthium strumarium; for pest or weed control at 125 g/ha: 125 g ai/ha; for pest or weed control at 500 g/ha: 500 g ai/ha
Outline: as §3

morningglory = test: Test B pre-/postemergence herbicide test; format: in vivo, Ipomoea coccinea; conditions: Ipomoea, 336 h; for pest or weed control at 125 g/ha: 125 g ai/ha; for pest or weed control at 500 g/ha: 500 g ai/ha
Outline: as §3

wild oat = test: Test B postemergence herbicide test; format: in vivo, Avena fatua; conditions: Avena fatua, post-emergence, 336 h, postemergence, read-out: Oat, Wild plant response rating
Outline: as §1

lambsquarters = test: Test B pre-/postemergence herbicide test; format: in vivo, Chenopodium album; conditions: Chenopodium album, 336 h; for pest or weed control at 125 g/ha: 125 g ai/ha; for pest or weed control at 500 g/ha: 500 g ai/ha
Outline: as §2

[2] = tested on: small flower umbrella sedge; test: Test B flooded paddy test; format: in vivo, Cyperus difformis; conditions: Cyperus difformis, 336 h, 1000 g ai/ha, scale 0 to 100 (0 no effect, 100 complete control), read-out: Sedge, Umbrella plant response rating
Outline: as §1

wheat = test: Test B postemergence herbicide test; format: in vivo, Triticum aestivum; conditions: Triticum aestivum, post-emergence, 336 h, postemergence, read-out: Wheat plant response rating
Outline: as §1

barnyardgrass [3] = test: Test B flooded paddy test; format: in vivo, Echinochloa crus-galli; conditions: Echinochloa crus-galli, 336 h, 1000 g ai/ha, scale 0 to 100 (0 no effect, 100 complete control), read-out: Barnyardgrass plant response rating
Outline: as §1

[4] = post-emergence, postemergence, visual rating, scale 0 (no effect) to 100 (complete control), read-out: Barnyardgrass plant response rating
[5] = post-emergence, postemergence, visual rating, scale 0 (no effect) to 100 (complete control), read-out: Cocklebur plant response rating
[6] = 125 g ai/ha, visual rating, scale 0 (no effect) to 100 (complete control)
[7] = 500 g ai/ha, scale 0 to 100, 0 is no effect, 100 is complete control

CCNC(=O)c1cc(NC(=O)c2cn(C(C)(C)C)nc2CC)ccc1F [Compound 241, 1-(1,1-dimethylethyl)-3-ethyl-N-[3-[(ethylamino)carbonyl]-4-fluorophenyl]-1H-pyrazole-4-carboxamide]
pest or weed control at 125 g/ha (blackgrass; 125 g ai/ha): 0%
pest or weed control at 500 g/ha (blackgrass; 500 g ai/ha): 10%
pest or weed control at 1000 g/ha (ducksalad): 70%
pest or weed control at 125 g/ha (velvetleaf; post-emergence, postemergence, visual rating, scale 0 (no effect) to 100 (complete control), read-out: Velvetleaf plant response rating): 10%
pest or weed control at 500 g/ha (velvetleaf; post-emergence, postemergence, scale 0 to 100, 0 is no effect, 100 is complete control, read-out: Velvetleaf plant response rating): 10%
pest or weed control at 125 g/ha (velvetleaf; pre-emergence, 0 = no effect, 100 = complete control, read-out: Velvetleaf plant response rating (0 to 100 scale)): 20%
pest or weed control at 500 g/ha (velvetleaf; pre-emergence, visual rating, 0 = no effect, 100 = complete control, read-out: Plant response rating, Velvetleaf): 100%
pest or weed control at 125 g/ha (Surinam grass; post-emergence, postemergence, visual rating, scale 0 (no effect) to 100 (complete control), read-out: Surinam Grass plant response rating): 10%
pest or weed control at 500 g/ha (Surinam grass; post-emergence, postemergence, scale 0 to 100, 0 is no effect, 100 is complete control, read-out: Surinam Grass plant response rating): 20%
pest or weed control at 125 g/ha (Surinam grass; pre-emergence, 0 = no effect, 100 = complete control, read-out: Surinam Grass plant response rating (0 to 100 scale)): 10%
pest or weed control at 500 g/ha (Surinam grass; pre-emergence, visual rating, 0 = no effect, 100 = complete control, read-out: Plant response rating, Surinam Grass): 90%
pest or weed control at 125 g/ha (pigweed; post-emergence, postemergence, visual rating, scale 0 (no effect) to 100 (complete control), read-out: Pigweed plant response rating): 30%
pest or weed control at 500 g/ha (pigweed; post-emergence, postemergence, scale 0 to 100, 0 is no effect, 100 is complete control, read-out: Pigweed plant response rating): 50%
pest or weed control at 125 g/ha (pigweed; pre-emergence, 0 = no effect, 100 = complete control, read-out: Pigweed plant response rating (0 to 100 scale)): 100%
pest or weed control at 500 g/ha (pigweed; pre-emergence, visual rating, 0 = no effect, 100 = complete control, read-out: Plant response rating, Pigweed): 100%
pest or weed control at 125 g/ha (barnyardgrass [1]; [4]): 0%
pest or weed control at 500 g/ha (barnyardgrass [1]; [4]): 0%
pest or weed control at 125 g/ha (barnyardgrass [1]; pre-emergence, 0 = no effect, 100 = complete control, read-out: Barnyardgrass plant response rating (0 to 100 scale)): 0%
pest or weed control at 500 g/ha (barnyardgrass [1]; pre-emergence, visual rating, 0 = no effect, 100 = complete control, read-out: Plant response rating, Barnyardgrass): 80%
plant injury at 1000 g/ha (rice): 70%
pest or weed control at 125 g/ha (giant foxtail; post-emergence, postemergence, visual rating, scale 0 (no effect) to 100 (complete control), read-out: Foxtail, Giant plant response rating): 0%
pest or weed control at 500 g/ha (giant foxtail; post-emergence, postemergence, scale 0 to 100, 0 is no effect, 100 is complete control, read-out: Foxtail, Giant plant response rating): 0%
pest or weed control at 125 g/ha (giant foxtail; pre-emergence, 0 = no effect, 100 = complete control, read-out: Foxtail, Giant plant response rating (0 to 100 scale)): 10%
pest or weed control at 500 g/ha (giant foxtail; pre-emergence, visual rating, 0 = no effect, 100 = complete control, read-out: Plant response rating, Foxtail, Giant): 90%
pest or weed control at 125 g/ha (cocklebur; [5]): 20%
pest or weed control at 500 g/ha (cocklebur; [5]): 30%
pest or weed control at 125 g/ha (cocklebur; pre-emergence, 0 = no effect, 100 = complete control, read-out: Cocklebur plant response rating (0 to 100 scale)): 0%
pest or weed control at 500 g/ha (cocklebur; pre-emergence, visual rating, 0 = no effect, 100 = complete control, read-out: Plant response rating, Cocklebur): 0%
pest or weed control at 125 g/ha (morningglory; post-emergence, postemergence, visual rating, scale 0 (no effect) to 100 (complete control), read-out: Morningglory plant response rating): 20%
pest or weed control at 500 g/ha (morningglory; post-emergence, postemergence, scale 0 to 100, 0 is no effect, 100 is complete control, read-out: Morningglory plant response rating): 70%
pest or weed control at 125 g/ha (morningglory; pre-emergence, 0 = no effect, 100 = complete control, read-out: Morningglory plant response rating (0 to 100 scale)): 0%
pest or weed control at 500 g/ha (morningglory; pre-emergence, visual rating, 0 = no effect, 100 = complete control, read-out: Plant response rating, Morningglory): 0%
pest or weed control at 125 g/ha (wild oat; [6]): 0%
pest or weed control at 500 g/ha (wild oat; [7]): 20%
pest or weed control at 125 g/ha (lambsquarters; post-emergence, postemergence, visual rating, scale 0 (no effect) to 100 (complete control), read-out: Lambsquarters plant response rating): 30%
pest or weed control at 500 g/ha (lambsquarters; post-emergence, postemergence, scale 0 to 100, 0 is no effect, 100 is complete control, read-out: Lambsquarters plant response rating): 50%
pest or weed control at 125 g/ha (lambsquarters; pre-emergence, 0 = no effect, 100 = complete control, read-out: Lambsquarters plant response rating (0 to 100 scale)): 80%
pest or weed control at 500 g/ha (lambsquarters; pre-emergence, visual rating, 0 = no effect, 100 = complete control, read-out: Plant response rating, Lambsquarters): 100%
pest or weed control at 1000 g/ha [2]: 80%
plant injury at 125 g/ha (wheat; [6]): 0%
plant injury at 500 g/ha (wheat; [7]): 10%
pest or weed control at 1000 g/ha (barnyardgrass [3]): 80%
